PMC4099972, “Extracts from New Zealand Undaria pinnatifida Containing Fucoxanthin as Potential Functional Biomaterials against Cancer in Vitro” (Journal of Functional Biomaterials, 2014)
Like-named read-outs stand apart in the source and are kept apart here.

What was measured:
[1] = test system: Hep G2 cell line (hepatocellular carcinoma); assay: MTT cell viability assay, Hep G2; format: cell-based; details: Homo sapiens, HepG2, extract concentrations normalized to fucoxanthin purity, read-out: IC50, growth inhibition
Procedure: (§1) All cancer cell lines were maintained in tissue culture incubator at 37 °C and 5% carbon dioxide. Cell viability was determined by MTT assay as previously described with a slight modification. Briefly, the optimized seeding cell density was 5000 cells/well for A549 and WiDr, while for Hep G2, Malme-3M, SiHa, NCI-H522, Lovo, SK-N-SH, and MCF-7, the seeding cell density was 10,000 cells/well. Microplate with 96 wells was used for the experiment and each well contained 100 μL of medium with cancer cells. […] All cancer cell lines were cultured in the presence or absence of fucoxanthin extract or standard. […] An aliquot of 20 μL of MTT reagent in phosphate buffer saline at a concentration of 5 mg/mL was added into each well after experiment, and washed with 150 µL of PBS. After incubation for 4 h at 37 °C, the formed MTT-formazan was dissolved in 150 μL DMSO. The viable cell amount was determined by the absorbance at 540 nm using a multiplate-reader (UV-visible FLUOStar Omega Multidetection Microplate Reader, AlphaTech NZ Ltd., Auckland, New Zealand).

[2] = test system: A549 cell line (lung carcinoma); assay: MTT cell viability assay, A549; format: cell-based; details: Homo sapiens, extract concentrations normalized to fucoxanthin purity, read-out: IC50, growth inhibition
Procedure: as §1

[3] = test system: WiDr cell line (colon adenocarcinoma); assay: MTT cell viability assay, WiDr; format: cell-based; details: Homo sapiens, extract concentrations normalized to fucoxanthin purity, read-out: IC50, growth inhibition
Procedure: as §1

[4] = test system: NCI-H522 cell line (lung cancer); assay: MTT cell viability assay, NCI-H522; format: cell-based; details: Homo sapiens, extract concentrations normalized to fucoxanthin purity, read-out: IC50, growth inhibition
Procedure: as §1

[5] = test system: SK-N-SH cell line (neuroblastoma); assay: MTT cell viability assay, SK-N-SH; format: cell-based; details: Homo sapiens, extract concentrations normalized to fucoxanthin purity, read-out: IC50, growth inhibition
Procedure: as §1

[6] = test system: Lovo cell line (colon adenocarcinoma); assay: MTT cell viability assay, Lovo; format: cell-based; details: Homo sapiens, extract concentrations normalized to fucoxanthin purity, read-out: IC50, growth inhibition
Procedure: as §1

[7] = test system: MCF-7 cell line (breast adenocarcinoma); assay: MTT cell viability assay, MCF-7; format: cell-based; details: Homo sapiens, MCF7, extract concentrations normalized to fucoxanthin purity, read-out: IC50, growth inhibition
Procedure: as §1

[8] = test system: SiHa cell line (cervix squamous carcinoma); assay: MTT cell viability assay, SiHa; format: cell-based, human; details: extract concentrations normalized to fucoxanthin purity, read-out: IC50, growth inhibition
Procedure: as §1

[9] = test system: Malme-3M cell line (malignant melanoma); assay: MTT cell viability assay, Malme-3M; format: cell-based, human; details: for IC50: Homo sapiens, extract concentrations normalized to fucoxanthin purity, read-out: IC50, growth inhibition
Procedure: as §1

[10] = test system: human dermal fibroblasts (HDFb); assay: MTT cell viability assay, non-cancer HDFb; format: cell-based; details: Fibroblast, extract concentrations normalized to fucoxanthin purity, read-out: IC50, growth inhibition (non-cancer cell line)
Procedure: (§2) All three cell lines were purchased from Invitrogen NZ Ltd. HDFb was maintained in Dulbecco’s Modified Eagle Medium supplemented with LSGS. HUVEC cells were maintained in Cascade Biologics Medium 200 supplemented with LSGS. HEK293 cells were maintained in RPMI 1640 culture medium supplemented with 1% Penicillin-Streptomycin, 4 mM L-glutamine and 10% of FBS. Cell viability was determined by MTT assay as previously described with a slight modification. Briefly, the optimized seeding cell density was 5000 cells/well for A549 and WiDr, while for Hep G2, Malme-3M, SiHa, NCI-H522, Lovo, SK-N-SH, and MCF-7, the seeding cell density was 10,000 cells/well. Microplate with 96 wells was used for the experiment and each well contained 100 μL of medium with cancer cells. […] All cancer cell lines were cultured in the presence or absence of fucoxanthin extract or standard. […] An aliquot of 20 μL of MTT reagent in phosphate buffer saline at a concentration of 5 mg/mL was added into each well after experiment, and washed with 150 µL of PBS. After incubation for 4 h at 37 °C, the formed MTT-formazan was dissolved in 150 μL DMSO.

[11] = test system: human umbilical vein endothelial (HUVEC); assay: MTT cell viability assay, non-cancer HUVEC; format: cell-based; details: extract concentrations normalized to fucoxanthin purity, read-out: IC50, growth inhibition (non-cancer cell line)
Procedure: as §2

[12] = test system: human embryonic kidney (HEK293); assay: MTT cell viability assay, non-cancer HEK293; format: cell-based; details: for IC50: Homo sapiens, extract concentrations normalized to fucoxanthin purity, read-out: IC50, growth inhibition (non-cancer cell line)
Procedure: as §2

[13] = test system: all tested cancer cell lines (nine human cancer cell lines); assay: MTT cell viability, all tested cancer cell lines; format: cell-based; details: 72 h, read-out: cell viability compared with untreated cell cultures
Procedure: All nine cancer cell lines were treated with pure fucoxanthin (Sigma) at concentrations of 1.5625, 6.25, 12.5, 25, 50, 80, 100 µM for 24, 48 and 72 h, respectively (Figure 3). There was significant difference between high and low concentrations and between 24, 48 and 72 h treatments (p < 0.05).
Human cancer cell lines used in this study were purchased from ATCC (Cryosite Ltd., Sydney, NSW, Australia), including lung carcinoma line A549, colon adenocarcinoma lines WiDr and Lovo, lung cancer line NCI-H522, hepatocellular carcinoma line Hep G2, neuroblastoma line SK-N-SH, breast adenocarcinoma line MCF, cervix squamous line SiHa, and malignant melanoma line Malme-3M. All nine cell lines were maintained in RPMI 1640 culture medium supplemented with 1% Penicillin-Streptomycin, 4 mM L-glutamine and 10% of FBS except Malme-3M (20% FBS). […]
Cell viability was determined by MTT assay as previously described with a slight modification. […]
Pure fucoxanthin standard and all U. pinnatifida fucoxanthin extracts were dissolved in pure ethanol to 5 mM as a stock solution, and the final ethanol concentration was 2% in the culture medium. […] The viable cell amount was determined by the absorbance at 540 nm using a multiplate-reader (UV-visible FLUOStar Omega Multidetection Microplate Reader, AlphaTech NZ Ltd., Auckland, New Zealand). […]

[14] = test system: human non-cancer cells; assay: MTT cell viability, human non-cancer cells (control study); format: cell-based; details: 1.56 μM
From the text: Three human non-cancer cell lines including human dermal fibroblasts (HDFb), human umbilical vein endothelial (HUVEC) and human embryonic kidney (HEK293) were used to determine in vitro toxicity of pure fucoxanthin and extracts from NZ U. pinnatifida. All three cell lines were purchased from Invitrogen NZ Ltd. HDFb was maintained in Dulbecco’s Modified Eagle Medium supplemented with LSGS. HUVEC cells were maintained in Cascade Biologics Medium 200 supplemented with LSGS. HEK293 cells were maintained in RPMI 1640 culture medium supplemented with 1% Penicillin-Streptomycin, 4 mM L-glutamine and 10% of FBS.
Cell viability was determined by MTT assay as previously described [34] with a slight modification. […] Treatment time was 24, 48 or 72 h.
Pure fucoxanthin standard and all U. pinnatifida fucoxanthin extracts were dissolved in pure ethanol to 5 mM as a stock solution, and the final ethanol concentration was 2% in the culture medium. An aliquot of 20 μL of MTT reagent in phosphate buffer saline at a concentration of 5 mg/mL was added into each well after experiment, and washed with 150 µL of PBS. After incubation for 4 h at 37 °C, the formed MTT-formazan was dissolved in 150 μL DMSO. The viable cell amount was determined by the absorbance at 540 nm using a multiplate-reader (UV-visible FLUOStar Omega Multidetection Microplate Reader, AlphaTech NZ Ltd., Auckland, New Zealand). […]

[15] = test system: rats; parameters: method as in doi:10.3136/nskkk.55.304; details: oral, 750 mg/kg for 28 days, purity 95%; cited from earlier work
[16] = test system: mice; parameters: method as in PMID 22072997; details: repeated dose of 500 and 1000 mg/kg for 30 day; cited from earlier work
[17] = test system: mouse bone marrow cells; parameters: method as in PMID 21720124, PMID 21720125; details: cited from earlier work
[18] = cited from earlier work

CC(=O)O[C@H]1CC(C)(C)C(=C=C/C(C)=C/C=C/C(C)=C/C=C/C=C(C)/C=C/C=C(\C)C(=O)C[C@@]23O[C@]2(C)C[C@@H](O)CC3(C)C)[C@](C)(O)C1 [Pure fucoxanthin, fucoxanthin]
IC50 ([1]; Hep G2, 48 h treatment): 58.9 ± 1.23 µM | IC50 ([1]; Hep G2, 72 h treatment): 25.9 ± 1.69 µM | IC50 ([2]; A549, 48 h treatment): 44.7 ± 2.26 µM | IC50 ([2]; A549, 72 h treatment): 25.6 ± 1.07 µM | IC50 ([3]; 48 h treatment): 42.3 ± 1.25 µM | IC50 ([3]; 72 h treatment): 25 ± 1.63 µM | IC50 ([4]; NCI-H522, 48 h treatment): 46.1 ± 1.07 µM | IC50 ([4]; NCI-H522, 72 h treatment): 24.5 ± 1.58 µM | IC50 ([5]; 48 h treatment): 52.7 ± 1.07 µM | IC50 ([5]; 72 h treatment): 31.2 ± 2.62 µM | IC50 ([6]; 48 h treatment): 39.6 ± 0.94 µM | IC50 ([6]; 72 h treatment): 21.8 ± 1.17 µM | IC50 ([7]; MCF-7, 48 h treatment): 44 ± 2.61 µM | IC50 ([7]; MCF-7, 72 h treatment): 22.5 ± 1.26 µM | IC50 ([8]; 48 h treatment): 37.8 µM | IC50 ([8]; Homo sapiens, 48 h, 48 h treatment): 37.6 ± 1.49 µM | IC50 ([8]; Homo sapiens, 72 h, 72 h treatment): 18.9 ± 2.16 µM | IC50 ([9]; 48 h treatment): 28 ± 1.36 µM | IC50 ([9]; 72 h treatment): 17.3 ± 2.65 µM | concentration from which cell viability is significantly decreased ([9]; within 24 h): ≥ 50 µM | IC50 ([10]; 48 h treatment): 32.2 µM | IC50 ([10]; 72 h treatment): 15.7 µM | IC50 ([11]; 48 h treatment): 3.98 µM | IC50 ([11]; 72 h treatment): 3.36 µM | growth inhibition effect on cells ([12]; HEK293, 6.25 μM, 24- and 48-h treatment): no growth inhibition effect | IC50 ([12]; HEK293, 48 h treatment): 18.7 µM | IC50 ([12]; HEK293, 72 h treatment): 7.66 µM | viability at 100 µM [13]: ~20% | effect on growth of human non-cancer cells [14]: promote the growth | toxicity at repeated doses [15]: did not show obvious toxicity | histological abnormality in tissues (liver, kidney, spleen, gonadal) [16]: no abnormality was found | genotoxic/mutagenic effects [17]: not found | 50% lethal dose [18]: more than 2000 mg/kg body weight
